Test [1] has as its system splenic lymphocytes. The test can be described thus: Lymphoproliferative assay (tritiated thymidine incorporation, stimulation index). The format is cell-based, mice. Here is the method: To evaluate the T cell-mediated immune response against the WNV Cp gene product, an in vivo mouse experiment was set up. The quadriceps muscles of 6- to 8-week-old female BALB/c mice (Harlan Sprague Dawley, Inc., Indianapolis, Ind.) were injected with 100 μg of pWNVh-DJY, pWNVy-DJY, or pcDNA3.1 (without an insert) in PBS and 0.25% bupivacaine-HCl (Sigma, St Louis, Mo.). Two weeks later, the mice received a boost of another 100 μg DNA injections. Thirteen days after the boost injection, the mice were sacrificed, the spleens were harvested, and the lymphocytes were isolated and tested for cellular immune responses.
Harvested splenic lymphocytes were pooled for two mice in each immunized group and suspended to a concentration of 5×10^6 cells/ml. A 100 μl aliquot, containing 5×10^5 cells, was immediately added to each well of a 96-well, flat bottom microtiter plate. Reconstituted peptide, in vitro translated protein, or in vitro translation control were added to the wells, at concentrations of 5 μg/ml and 1 μg/ml (and 0.5 μg/ml for in vitro translated protein and in vitro translation control protein). Concanavalin A (Con A) was used as a positive proliferation control. The assay conditions were set up in triplicate. The cells were incubated at 37° C. in 5% CO2 for three days. One μCi of tritiated thymidine was added to each well and the cells were incubated for 18 hours at 37° C. The plate was harvested and the amount of incorporated tritiated thymidine was measured in a Beta Plate reader (Wallac, Turku, Finland). Stimulation Index was determined from the formula: Stimulation Index (SI)=(experimental count/spontaneous count). Spontaneous count wells included 5% fetal bovine serum which served as an irrelevant protein control.
The values presented for each condition are stimulation indices averaged over triplicate wells. For each immunization group tested, splenocytes were pooled from two mice within the group. “H” indicates splenocytes from the pWNVh-DJY-immunized group. “Y” indicates splenocytes from the pWNVh-DJY-immunized group of mice. “pcDNA3.1” indicates splenocytes from the pcDNA3.1-immunized control group of mice. Peptides 1, 2, and 3 are the WNVC-P1, WNVC-P2, and WNVC-P3 peptides described above. “Peptide 123” indicates a mixture of peptide 1, 2, and 3. “Y protein” indicates the Cp protein in vitro translated from the pWNVy-DJY construct. “Ctrl pro” indicates the in vitro translation control, generated with pcDNA3.1 vector containing no expressible insert, as described above. Detection of Intracellular IFN-γ by Flow Cytometry
Background: Incorporation of labelled thymidine or its analogues reports DNA synthesis.

The subject of test [2] is SH-SY5Y neuroblastoma cells. In words: TUNEL analysis of cells incubated with peptide. The conditions noted are these: 10 μg peptide per 1×10^5 cells, 24 hours. The format is cell-based. As for the experimental part: Peptide WNVC-P3, as described in Example 3 and FIG. 11 above, was tested for its ability to induce apoptosis in cells in culture. Peptide WNVC-P3 was incubated with SH-SY5Y neuroblastoma cells (ATCC; Manassas, Va.) at a concentration of 10 μg peptide per 1×10^5 cells.

The mark [3] stands for this setting: splenocytes from H (pWNVh-DJY-immunized) mice, protein or peptide 1 μg/ml.
Setting [4] is: splenocytes from H (pWNVh-DJY-immunized) mice, protein or peptide 5 μg/ml.
Where [5] appears, read: splenocytes from Y group of immunized mice, protein or peptide 1 μg/ml.
Where [6] appears, read: splenocytes from Y group of immunized mice, protein or peptide 5 μg/ml.
[7] abbreviates: splenocytes from pcDNA3.1-immunized control mice, protein or peptide 1 μg/ml.
Setting [8] is: splenocytes from pcDNA3.1-immunized control mice, protein or peptide 5 μg/ml.

In the case of SKKPGGPGKSRAVNMLKRGMPR [Peptide 1], the “Stimulation Index (SI)” value came to 0.7 in test [1] (setting [3]); 0.5 in test [1] (setting [4]); 1.2 in test [1] (setting [5]); 0.8 in test [1] (setting [6]); 1.3 in test [1] (setting [7]); 0.9 in test [1] (setting [8]).
On to TLTSAINRRSSKQKKRGGKTGI [Peptide 3], for which the “Stimulation Index (SI)” value was 2.0 in test [1] (setting [3]); 1.5 in test [1] (setting [4]); 1.4 in test [1] (setting [5]); 1.1 in test [1] (setting [6]); 0.7 in test [1] (setting [7]); 0.8 in test [1] (setting [8]). Moreover, the TUNEL-positive cells entry in test [2] is listed as “TUNEL-positive cells were identified”.
On to KRAMLSLIDGKGPIRFVLA [Peptide 2], for which the “Stimulation Index (SI)” value in test [1] (setting [3]) came to 1.3; in test [1] (setting [4]), 1.7; in test [1] (setting [5]), 1.8; in test [1] (setting [6]), 1.6; in test [1] (setting [7]) it was 1.0; in test [1] (setting [8]) it was 0.9.
On to “Concanavalin A [Con A, reference compound]”, for which the “Stimulation Index (SI)” value in test [1] (setting [4]) is recorded as 686.5; in test [1] (setting [6]) it was 366.9; in test [1] (setting [8]), 71.8.
